Measurements as given in paper PMC8310135 (Viruses, 2021).
Where a name gives a salt, the structure may show the parent alone. Read-outs that look alike come from different tables or passages of the source.

Assays:
rLUJV/ZsG = experiment: microbe, parasite or virus in culture; format: cell-based, Lujo virus
in vitro = settings: human; for CC50: CC50 (50% cell cytotoxicity concentration)
[1] = Mammarenavirus lujoense, Huh-7, 50 nM, read-out: Relative ZsG (%) Mean
[2] = Mammarenavirus lujoense, Huh-7, 500 nM, read-out: Relative ZsG (%) Mean
[3] = Mammarenavirus lujoense, Huh-7, 5000 nM, read-out: Relative ZsG (%) Mean
[4] = Mammarenavirus lujoense, Huh-7, read-out: EC50 (concentration inhibiting ZsG expression by 50%)
[5] = read-out: EC50 (concentration inhibiting ZsG expression by 50%)
[6] = Mammarenavirus lujoense, Huh-7, read-out: Relative ZsG (%) Mean

Structure (SMILES) | activity at 0.05 µM (rLUJV/ZsG; [1]) [%] | activity at 0.5 µM (rLUJV/ZsG; [2]) [%] | activity at 5 µM (rLUJV/ZsG; [3]) [%] | viability at 0.05 µM (in vitro) [%] | viability at 0.5 µM (in vitro) [%] | viability at 5 µM (in vitro) [%] | EC50 (rLUJV/ZsG; [4]) [µM] | EC50 (rLUJV/ZsG; [5]) [µM] | CC50 (in vitro) [µM] | activity at 0.05 µM (rLUJV/ZsG; [6]) [%] | activity at 0.5 µM (rLUJV/ZsG; [6]) [%] | activity at 5 µM (rLUJV/ZsG; [6]) [%] | SI (selectivity index, CC50 divided by EC50) (rLUJV/ZsG)
CCOC(=O)C1=C(C)NC(C)=C(C(=O)OCC)C1c1ccccc1/C=C/C(=O)OC(C)(C)C [Lacidipine] | 90 | 90 | 47 | 138 | 129 | 98 | – | – | – | – | – | – | –
CN1[C@@H]2CC[C@H]1C[C@@H](OC(c1ccccc1)c1ccccc1)C2 [Benztropine mesylate] | 110 | 90 | 36 | 126 | 130 | 108 | 5.14 ± 1.52 | 5.14 ± 1.52 | > 25 | – | – | – | –
CCCCc1oc2ccccc2c1C(=O)c1cc(I)c(OCCN(CC)CC)c(I)c1 [Amiodarone] | 80 | 60 | 3 | – | – | – | – | – | 13.6 ± 1.51 | – | – | – | –
O=c1cnn([C@@H]2O[C@H](CO)[C@@H](O)[C@H]2O)c(=O)[nH]1 [6-azauridine] | 95 | 87 | 78 | 98 | 103 | 97 | – | – | – | – | – | – | –
Clc1ccc(COC(Cn2ccnc2)c2ccc(Cl)cc2Cl)c(Cl)c1 (centres unmarked) [Miconazole nitrate] | 65 | 78 | 47 | 119 | 120 | 67 | – | – | – | – | – | – | –
CC(C)(C)C(=O)OCOP(=O)(COCCn1cnc2c(N)ncnc21)OCOC(=O)C(C)(C)C [Adefovir dipivoxil] | 70 | 38 | 24 | 123 | 94 | 54 | – | – | – | – | – | – | –
O=C1CCc2ccc(OCCCCN3CCN(c4cccc(Cl)c4Cl)CC3)cc2N1 [Aripiprazole] | 71 | 81 | 16 | 124 | 126 | 59 | – | – | – | – | – | – | –
CN1CCC[C@@H]1CCO[C@](C)(c1ccccc1)c1ccc(Cl)cc1 [Clemastine fumarate] | 95 | 81 | 6 | 115 | 116 | 107 | – | – | – | – | – | – | –
O=c1cnn([C@@H]2O[C@H](CO)[C@@H](O)[C@H]2O)c(=S)[nH]1 [6-aza-2-thiouridine] | 134 | 139 | 112 | 104 | 96 | 103 | – | – | – | – | – | – | –
Cc1cn([C@@H]2O[C@H](CO)[C@@H](O)[C@H]2O)c(=O)nc1N [5-methylcytidine] | 122 | 129 | 108 | 96 | 97 | 98 | – | – | – | – | – | – | –
C[C@@]1(O)[C@H](O)[C@@H](CO)O[C@H]1n1ccc(=O)[nH]c1=O [2ʹ-C-methyluridine] | 132 | 142 | 126 | 102 | 100 | 97 | – | – | – | – | – | – | –
O=c1[nH]c(=O)n([C@@H]2O[C@H](CO)[C@@H](O)[C@H]2O)cc1Br [5-bromouridine] | 134 | 131 | 106 | 97 | 102 | 100 | – | – | – | – | – | – | –
N#CC1(c2ccc(NC(=O)c3cccnc3NCc3ccncc3)cc2)CCCC1 [Apatinib] | 91 | 67 | 47 | 113 | 119 | 95 | – | – | – | – | – | – | –
Cc1cn([C@H]2C[C@H](N=[N+]=[N-])[C@@H](CO)O2)c(=O)[nH]c1=O [Zidovudine] | 99 | 88 | 92 | 97 | 105 | 93 | – | – | – | – | – | – | –
CC(C)C(=O)OC[C@@]1(N=[N+]=[N-])O[C@@H](n2ccc(N)nc2=O)[C@H](OC(=O)C(C)C)[C@@H]1OC(=O)C(C)C [Balapiravir (R1626), Balapiravir] | 139 | 81 | 122 | 104 | 104 | 99 | – | – | – | – | – | – | –
O=C1C(O)=C([C@H]2CC[C@H](c3ccc(Cl)cc3)CC2)C(=O)c2ccccc21 [Atovaquone] | 108 | 90 | 74 | 129 | 134 | 115 | – | – | – | – | – | – | –
COc1c(-c2ccc3cc(NS(C)(=O)=O)ccc3c2)cc(-n2ccc(=O)[nH]c2=O)cc1C(C)(C)C [ABT-333] | 131 | 111 | 129 | 99 | 96 | 104 | – | – | – | – | – | – | –
Cc1cn([C@H]2C=C[C@@H](CO)O2)c(=O)[nH]c1=O [Stavudine] | 125 | 104 | 96 | 101 | 98 | 103 | – | – | – | – | – | – | –
CNCC[C@H](Oc1cccc2ccccc12)c1cccs1 [Duloxetine HCL] | – | – | – | 104 | 109 | 76 | – | – | – | 103 | 74 | 4 | –
CC(C)/N=c1\cc2n(-c3ccc(Cl)cc3)c3ccccc3nc-2cc1Nc1ccc(Cl)cc1 [Clofazimine] | 88 | 75 | 52 | 120 | 125 | 102 | – | – | – | – | – | – | –
O=C1C=CN([C@@H]2O[C@H](CO)[C@@H](O)[C@H]2O)C(=O)C1 [3-deazauridine] | 108 | 105 | 111 | 103 | 96 | 99 | – | – | – | – | – | – | –
CCOC(=O)c1c(CSc2ccccc2)n(C)c2cc(Br)c(O)c(CN(C)C)c12 [Arbidol] | 77 | 65 | 40 | 135 | 139 | 109 | – | – | – | – | – | – | –
O=c1[nH]c(=O)n([C@@H]2O[C@H](CO)[C@@H](O)[C@H]2O)cc1F [5-fluorouridine] | 94 | 51 | 19 | 97 | 100 | 103 | – | – | – | – | – | – | –
C#Cc1cccc(Nc2ncnc3cc(OCCOC)c(OCCOC)cc23)c1 [Erlotinib] | 82 | 66 | 65 | 127 | 126 | 110 | – | – | – | – | – | – | –
CC(C)OC(=O)[C@H](C)N[P@](=O)(OC[C@H]1O[C@@H](n2ccc(=O)[nH]c2=O)[C@](C)(F)[C@@H]1O)Oc1ccccc1 [PSI-7977] | 119 | 95 | 118 | 101 | 97 | 104 | – | – | – | – | – | – | –
CN(C)CCOc1ccc(/C(=C(/CCCl)c2ccccc2)c2ccccc2)cc1 [Toremifene citrate] | 86 | 88 | 9 | 122 | 128 | 93 | 4.22 ± 0.78 | 4.22 ± 0.778 | 10.9 ± 3.14 | – | – | – | 2.6
